The record followed here is patent US20120258482A1, “PCNA […]” (INDIANA UNIVERSITY RESEARCH AND TECHNOLOGY CORPORATION, priority 2009, published 2012).

Type in all cases: cell-based, human
Test [1] deals with PCNA isoform in MDA MB468 cells (p53-mutant). Put plainly: 2D-PAGE anti-PCNA immunoblot after DOX exposure, MDA MB468. To be noted: 5 μM DOX. On the procedure: (§1) FIG. 7A is a Western blot analysis of p53 wild-type (MCF7) and p53-mutant (MDA-MB-468) breast carcinoma cell lines exposed to 5 μM DOX for the indicated times. Cell extracts (200 μg) were resolved by 2D-PAGE and immunoblotted with anti-PCNA antibodies. In FIG. 7B extracts from MCF7 cells (50 μg) treated with 5 μM DOX were separated by 12% SDS-PAGE and immunoblotted with anti-p21WAF1 antibodies. FIG. 7C is a Western blot analysis of glutathione-immobilized GST-p21 and GST-PIP (a.a. 139-160) fusion proteins incubated with untreated MCF7 cell extracts for 2 h at 4° C. and the pull-down fractions were resolved by 2D-PAGE and Western blotted for PCNA. PCNA isoforms were isolated from MCF7 extracts by incubation with PIP-affinity beads for ˜2 h and analyzed by 2D-PAGE using pH 4-7 IPG strips. Colloidal Coomassie stained spots (See FIG. 7D) were excised from the gel, trypsin digested, and sequenced by LC-MS/MS.
(§2) 2D-PAGE and mass spectrometry. Isoelectric focusing was performed using IPG strips and an IEF cell (BioRad) as previously described (Hoelz, D. J. et al. Proteomics 6, 4808-4816, 2006). […] Anti-PCNA (PC10) antibodies were obtained from Santa Cruz Biotech and anti-WAF1 (DF10) were from EMD Biosciences.
(§3) Although the description of Arm1 identifies a novel posttranslational mechanism in eukaryotic cells, its biological significance was still unclear. […]
In general terms: A western blot detects proteins with antibodies after separation by electrophoresis.

Test [2] has as its system PCNA isoform in MCF7 cells (p53 wild-type). Put plainly: 2D-PAGE anti-PCNA immunoblot after DOX exposure, MCF7. To be noted: high-dose (5 μM) DOX. On the procedure:
as §1, §2, §3

Test [3] relates to p21WAF1/CIP1 in MCF7 cells. The test can be described thus: Immunoblot with anti-p21WAF1 antibodies after DOX treatment. The conditions noted are these: 5 μM DOX, 4 h after treatment.

`COc1cccc2c1C(=O)c1c(O)c3c(c(O)c1C2=O)C[C@@](O)(C(=O)CO)C[C@@H]3O[C@H]1C[C@H](N)[C@H](O)[C@H](C)O1` [DOX, doxorubicin]: the “basic-shifted (methyl esterified) PCNA isoform” value in test [1] is recorded as “unable to identify the isoform”. For the same molecule, in test [2], the “basic-shifted (methyl esterified) PCNA isoform, pI ~5.6” value is listed as “induced”. The “induction of p21 expression” value in test [3] is reported as “over 27 fold”.
